# “Also recorded” adds a separate entry of the source.
# Columns and labels:
# [1] = test system: adult rats; assay: Barnes maze after LPS; assay type: in vivo, rat
# Excerpt: LPS-induced inflammatory response impairs performance in the Barnes maze. It has been reported previously that irradiation and LPS-induced inflammation impair performance in hippocampus-dependent spatial tasks. The present studies confirm that LPS treatment impaired recall of a goal position learned prior to LPS treatment. The Barnes maze is a 6-foot diameter bright white platform with 8 escape boxes under holes in the rim of the platform. All escape holes are blocked except one and the rat is initially placed in the goal box for familiarization. The rat is then placed in the center of the maze and is allowed to find its way back to the goal box to escape the aversive brightly lit platform. Learning is seen as a decrease in the distance traveled to reach the goal box with consecutive trials on a given day and in repeat sessions on sequential days. One measure of recall is to determine distance traveled when the animal is tested on the same task after a time delay or after experimental treatments.
# To determine if there were differences in recall following LPS treatment, animals were trained on the Barnes maze for 5 consecutive days prior to LPS treatment. LPS was given on day 0 and animals tested for recall on day 7. Low-dose intraperitoneal LPS treatment makes animals feel mildly ill and they will reduce their water and food intake for a period of one or two days. There is a temporary weight loss that is fully recovered by day 7.
# Animals were weighed daily and after 7 days tested for memory retention on the Barnes maze. On days 8-11, animals were re-trained for their ability to learn the position of a new goal box in the Barnes maze. Animals were then tested on day 14 for the ability to remember the position of the second goal box. LPS caused a ˜14% increase in the distance traveled to the goal box learned prior to LPS treatment, indicating impaired spatial memory. LPS caused a significant increase (˜28%) in the distance traveled during day 8 trials used to learn the position of the new goal box (indicating impaired spatial learning) but all animals eventually learned the position of the goal box by day 11 (no difference in distance traveled between LPS and control groups).
# [2] = test system: hippocampal neurogenesis; assay: LPS-induced systemic inflammation, hippocampal neurogenesis, one-week BrdU labeling paradigm; assay type: in vivo, rat
# Description: To determine the effects of inflammation on adult hippocampal neurogenesis, bacterial lipopolysaccharide (LPS) was injected into adult female rats to induce systemic inflammation. The intraperitoneal administration of LPS causes a peripheral inflammatory cascade that is transduced to the brain via IL-1β from the cerebral vasculature and causes a strong upregulation of central pro-inflammatory cytokine production. Following LPS exposure, rats were treated systemically with bromo-deoxyuridine (BrdU) for 6 days to label proliferating cells within the hippocampus. Animals were then sacrificed on the 7th day. The fate of the BrdU-labeled, proliferative cells was analyzed with immuno-fluorescent staining and confocal microscopy.
# Control animals were given either vehicle (5% bicarbonate) injections i.p. or plain dog food. To ensure complete consumption of food and medication in the 2 month paradigm, rats were restricted to 80% of their ad lib intake.
# LPS exposure. Bacterial lipopolysaccharide (LPS, Sigma, St Louis, Mo.) was administered in sterile saline by intraperitoneal injection at a dose of 1 mg/Kg one time. This caused mild sickness behavior (decreased grooming, decreased locomotor activity, increased piloerection) for approximately 2 days, resolving by the 3rd day. The dose of LPS chosen causes mild sickness behavior in rats that resolves within 1-2 days; the dose of LPS used to induce endotoxic shock is 10-fold higher than that used in the present study.
# Immunocytochemistry and immunofluorescent staining. Free floating sections were immunostained as previously described using the following primary antibodies and working concentrations: mouse anti-NeuN (1:4, gift from R. Mullen); guinea pig-anti GFAP (1:800, Harlan, Indianapolis, Ind.); mouse anti-type III βtubulin (Tuj-1, 1:500, Berkeley Antibody Co., Richmond, Calif.); rabbit anti-NG2 (1:200, Chemicon, Temecula, Calif.); mouse anti-rat CD11b (1:200, Serotec, Oxford, U.K.); mouse anti-ED-1 (1:100, Research Diagnostics Inc., Flanders, N.J.); biotinylated-Lycopersicon esculentum (tomato) lectin (1:200, Vector, Burlingame, Calif.).
# Confocal microscopy. All confocal microscopy was performed using a Zeiss 510 confocal microscope. Appropriate gain and black level settings were determined on control tissues stained with secondary antibodies alone. Upper and lower thresholds were always set using the range indicator function to minimize data loss through saturation.
# Cell counting and unbiased stereology. All counts were limited to the hippocampal granule cell layer proper and a 50 μm border along the hilar margin that included the neurogenic subgranule zone. The proportion of BrdU cells displaying a lineage-specific phenotype was determined by scoring the co-localization of cell phenotype markers with BrdU using confocal microscopy. Split panel and z-axis analysis were used for all counting. All counts were performed using multi-channel configuration with a 40× objective and electronic zoom of 2. When possible, 100 or more BrdU-positive cells were scored for each marker per animal. Each cell was manually examined in its full “z”-dimension and only those cells for which the nucleus was unambiguously associated with the lineage-specific marker were scored as positive. The total number of BrdU-labeled cells per hippocampal granule cell layer and subgranule zone was determined using diaminobenzadine stained tissues. In a separate series, the total number of ED1-labeled cells per dentate gyrus was also determined using diaminobenzadine stained tissue. Stained BrdU-positive nuclei or ED1-positive cells were scored under light microscopy using Microbrightfield Stereo Investigator software and the Fractionator method. Overestimation was corrected using the Abercrombie method for nuclei with empirically determined average diameter of 13 μm within a 40 μm section.
# [3] = indomethacin 2.5 mg/kg i.p. twice each day with LPS
# [4] = LPS 1 mg/Kg i.p. once, sacrifice on 7th day
Molecule,"learning and memory, drug alone by intraperitoneal injection ([1]; indomethacin 2.5 mg/kg twice daily i.p., no LPS)","learning and memory, oral drug alone ([1]; indomethacin 2.5 mg/kg twice daily oral, no LPS)",effect on LPS effects on memory retention and learning of second goal box ([1]; oral indomethacin 2.5 mg/kg twice daily with LPS),"effect on density of activated microglia (ED1+) after LPS [2, 3]","effect on distance from BrdU+ nucleus to nearest vessel after LPS [2, 3]","effect on LPS-induced inhibition of neurogenesis ([2]; indomethacin 2.5 mg/kg i.p. twice each day, concurrently with LPS)","effect on neurogenesis in control animals (drug alone) ([2]; indomethacin 2.5 mg/kg i.p. twice each day, no LPS)","increase in distance traveled to the goal box learned prior to LPS treatment ([1]; day 7 after LPS, memory retention) [%]","increase in distance traveled during day 8 trials to learn the new goal box ([1]; day 8 after LPS, spatial learning) [%]","decrease in hippocampal neurogenesis (proportion of non-microglial BrdU+ cells co-expressing Dcx) [2, 4] [%]","increase in the density of activated microglia (CD68/ED1-positive) in the dentate gyrus [2, 4] [%]"
COc1ccc2c(c1)c(CC(=O)O)c(C)n2C(=O)c1ccc(Cl)cc1 [indomethacin],perform more poorly in all tasks at all time points,no measurable effects,completely reverse,decreases this inflammatory response,restores the vascular association,completely blocked; also recorded: restores neurogenesis,no effect,,,,
lipopolysaccharide [LPS],,,,,,,,~14,~28,35,240
